The source of these data is patent US6369074B1, “Aminomethylene substituted non-aromatic heterocycles and use as substance P antagonists” (Pfizer Inc., priority 1992, dated 2002).

Each structure is given as a SMILES string. Where a name gives a salt, the structure may show the parent alone.

By melting point is commonly meant the temperature, or range, at which the solid turns liquid.

In the case of `COc1ccc(-n2c(C)ccc2C)cc1CN[C@H]1CCCN[C@H]1c1ccccc1` (as salt: hydrochloride) [Example 19, (2S,3S)-[5-(2,5-Dimethylpyrrol-1-yl)-2-methoxybenzyl]-(2-phenylpiperidin-3-yl) amine], the melting point is 217 °C (dec.). For `COc1ccc2c(C)c(C)sc2c1CN[C@H]1CCCN[C@H]1c1ccccc1.Cl.Cl.O` (hydrate or solvate) the value was 240 to 244 °C.
